Like-named read-outs stand apart in the source and are kept apart here.
Columns and labels:
[1] = test system: A-427 human lung carcinoma; test: CellTiter-Glo cancer cell line proliferation assay, A-427; type: cell-based; details: read-out: A427 at 24 hrs, IC50
Method: (§1) Cell lines were cultured according to ATCC and recommendations.
(§2) CellTiter-Glo® Reagent Cancer Cell Line Proliferation Assays
(§3) Cells were plated in 96-well tissue culture plates at 4,000 cells/well and incubated at 37° C./5% CO2 for 24 hr in 100 μl of media. […] Cells were then treated with test compounds at various concentrations with a final concentration of 0.5% DMSO/well, and then incubated at 37° C./5% CO2 for 24 hr. 100 μl of CellTiter-Glo® Reagent (Promega Corporation, Madison, WI) was added to each well and processed according manufacturer's protocol. Results were analyzed and IC50-values were calculated in GraphPad 7 software.

KRAS(G12D)/SOS1 = target: T1, KRAS(G12D)/SOS1 (Homo sapiens, UniProt P01116, G12D); test: KRAS(G12D)/SOS1 homogeneous time-resolved fluorescence (HTRF) assay; type: binding; details: absence of GTP, 4° C. for 3 hr
T1 construct: purchased Cisbio 63ADK000CB16PEG
Method: The test compound was mixed and incubated with reaction components, incubated in a sealed plate at 4° C. for 3 hr and fluorescence was measured using a PerkinElmer Envision plate reader.

[2] = test system: AsPC-1 human pancreatic adenocarcinoma; test: CellTiter-Glo cancer cell line proliferation assay, AsPC-1; type: cell-based
Method: as §1, §2, §3

KRAS(G12D) = target: T2, KRAS(G12D) (Homo sapiens, UniProt P01116, G12D); test: SW1990 WB assay (degradation DC50, Dmax); type: cell-based; details: Western blot, SW1990 cells
T2 construct: endogenous in cells; host or cells: SW1990
T2 sequence (P01116 1-188 isoform P01116-2 G12D): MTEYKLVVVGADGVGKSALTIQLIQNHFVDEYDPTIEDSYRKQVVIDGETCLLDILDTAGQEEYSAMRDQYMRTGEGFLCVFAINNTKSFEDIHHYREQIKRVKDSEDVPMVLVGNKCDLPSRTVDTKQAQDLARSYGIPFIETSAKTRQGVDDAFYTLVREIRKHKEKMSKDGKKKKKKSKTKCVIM

T1 sequence (P01116 1-188 isoform P01116-2 G12D): as above

SMILES | IC50 ([1]; Homo sapiens, A-427, 24 hr) [nM] | IC50 (KRAS(G12D)/SOS1) [nM] | IC50 ([2]; Homo sapiens, ASPC1, 24 hr) [nM] | DC50 (KRAS(G12D)) [nM] | Dmax (KRAS(G12D)) [%] | IC50 ([1]; 24 hr) [nM] | WB data SW1990 DMax (KRAS(G12D)) | IC50 ([2]; 24 hr, read-out: ASPC1 at 24 hrs, IC50) [nM]
CN1C[C@H](N2CCN(C(=O)C3CCN(c4ccc5c(c4)C(=O)N(C4CCC(=O)NC4=O)C5=O)CC3)CC2)C[C@@H]1COc1nc(N2CC3CCC(C2)N3)c2cnc(-c3cc(O)cc4ccccc34)c(F)c2n1 (stereo partly drawn) [Compound 37] | > 1000 | < 100 | > 1000 | – | – | – | – | –
O=C1CCC(N2C(=O)c3ccc(N4CCC(C(=O)N5CCN(CC6(COc7nc(N8CC9CCC(C8)N9)c8cnc(-c9cc(O)cc%10ccccc9%10)c(F)c8n7)CC6)CC5)CC4)cc3C2=O)C(=O)N1 (stereo not drawn) [Compound 39] | > 1000 | < 100 | > 1000 | – | – | – | – | –
O=C1CCC(N2Cc3cc(CN4CCN(CC5(COc6nc(N7CC8CCC(C7)N8)c7cnc(-c8cc(O)cc9ccccc89)c(F)c7n6)CC5)CC4)ccc3C2=O)C(=O)N1 (stereo not drawn) [Compound 40] | > 1000 | < 100 | > 1000 | – | – | – | – | –
O=C1CCC(N2C(=O)c3ccc(CN4CCN(CC5(COc6nc(N7CC8CCC(C7)N8)c7cnc(-c8cc(O)cc9ccccc89)c(F)c7n6)CC5)CC4)cc3C2=O)C(=O)N1 (stereo not drawn) [Compound 41] | > 1000 | < 100 | > 1000 | – | – | – | – | –
O=C1CCC(N2C(=O)c3cccc(N4CCC(CN5CCN(CC6(COc7nc(N8CC9CCC(C8)N9)c8cnc(-c9cc(O)cc%10ccccc9%10)c(F)c8n7)CC6)CC5)CC4)c3C2=O)C(=O)N1 (stereo not drawn) [Compound 42] | > 1000 | < 100 | > 1000 | – | – | – | – | –
CN1C[C@H](N2CCN(C(=O)C3CCN(c4ccc5c(c4)CN(C4CCC(=O)NC4=O)C5=O)CC3)CC2)C[C@@H]1COc1nc(N2CC3CCC(C2)N3)c2cnc(-c3cc(O)cc4ccccc34)c(F)c2n1 (stereo partly drawn) [Compound 44] | > 1000 | < 100 | > 1000 | – | – | – | – | –
CN1C[C@H](N2CCC(C(=O)N3CCN(c4ccc5c(c4)C(=O)N(C4CCC(=O)NC4=O)C5=O)CC3)CC2)C[C@@H]1COc1nc(N2CC3CCC(C2)N3)c2cnc(-c3cc(O)cc4ccccc34)c(F)c2n1 (stereo partly drawn) [Compound 46] | > 1000 | < 100 | > 1000 | – | – | – | – | –
O=C1CCC(N2C(=O)c3ccc(N4CCC(CN5CCN(CC6(COc7nc(N8CC9CCC(C8)N9)c8cnc(-c9cc(O)cc%10ccccc9%10)c(F)c8n7)CC6)CC5)CC4)cc3C2=O)C(=O)N1 (stereo not drawn) [Compound 47] | > 1000 | < 100 | > 1000 | – | – | – | – | –
C#Cc1cccc2cccc(-c3ncc4c(N5CC6CCC(C5)N6)nc(OCC5(CN6CCN(CC7CCN(c8ccc9c(c8)C(=O)N(C8CCC(=O)NC8=O)C9=O)CC7)CC6)CC5)nc4c3F)c12 (stereo not drawn) [Compound 48] | > 1000 | < 100 | > 1000 | – | – | – | – | –
O=C1CCC(N2C(=O)c3ccc(CN4CCN([C@H]5CN6CCC[C@@]6(COc6nc(N7CC8CCC(C7)N8)c7cnc(-c8cc(O)cc9ccccc89)c(F)c7n6)C5)CC4)cc3C2=O)C(=O)N1 (stereo partly drawn) [Compound 50] | > 1000 | < 100 | > 1000 | – | – | – | – | –
C#Cc1cccc2cccc(-c3ncc4c(N5CC6CCC(C5)N6)nc(OCC5(CN6CCN(C(=O)C7CCN(c8ccc9c(c8)CN(C8CCC(=O)NC8=O)C9=O)CC7)CC6)CC5)nc4c3F)c12 (stereo not drawn) [Compound 51] | > 1000 | < 100 | > 1000 | – | – | – | – | –
C#Cc1cccc2cc(O)cc(-c3ncc4c(N5CC6CCC(C5)N6)nc(OCC5(CN6CCN(CC7CCN(c8ccc9c(c8)C(=O)N(C8CCC(=O)NC8=O)C9=O)CC7)CC6)CC5)nc4c3F)c12 (stereo not drawn) [Compound 56] | 100 to 1000 | < 100 | – | < 100 | > 50 | – | – | –
C#Cc1cccc2cc(O)cc(-c3ncc4c(N5CC6CCC(C5)N6)nc(OCC5(CN6CCN(CC7CCN(c8ccc9c(c8)CN(C8CCC(=O)NC8=O)C9=O)CC7)CC6)CC5)nc4c3F)c12 (stereo not drawn) [Compound 57] | < 100 | < 100 | < 100 | < 100 | > 50 | – | – | –
C#Cc1c(F)ccc2cc(O)cc(-c3ncc4c(N5CC6CCC(C5)N6)nc(OCC5(CN6CCN(CC7CCN(c8ccc9c(c8)C(=O)N(C8CCC(=O)NC8=O)C9=O)CC7)CC6)CC5)nc4c3F)c12 (stereo not drawn) [Compound 59] | 100 to 1000 | < 100 | 100 to 1000 | – | – | – | – | –
COc1nc(-c2cc(O)cc3ccccc23)c(F)c2nc(OCC3(CN4CCN(CC5CCN(c6ccc7c(c6)C(=O)N(C6CCC(=O)NC6=O)C7=O)CC5)CC4)CC3)nc(N3CC4CCC(C3)N4)c12 (stereo not drawn) [Compound 66] | 100 to 1000 | < 100 | 100 to 1000 | – | – | – | – | –
C#Cc1cccc2cc(O)cc(-c3ncc4c(N5CC6CCC(C5)N6)nc(OCC5(CN6CCN(CC7CCN(c8ccc9c(c8)CN(C8CCC(=O)N(C)C8=O)C9=O)CC7)CC6)CC5)nc4c3F)c12 (stereo not drawn) [Compound 71] | 100 to 1000 | < 100 | – | > 1000 | 10 to 50 | – | – | –

SMILES | IC50 ([1]; Homo sapiens, A-427, 24 hr) [nM] | IC50 (KRAS(G12D)/SOS1) [nM] | IC50 ([2]; Homo sapiens, ASPC1, 24 hr) [nM] | DC50 (KRAS(G12D)) [nM] | Dmax (KRAS(G12D)) [%] | IC50 ([1]; 24 hr) [nM] | WB data SW1990 DMax (KRAS(G12D)) | IC50 ([2]; 24 hr, read-out: ASPC1 at 24 hrs, IC50) [nM]
C#Cc1cccc2cccc(-c3ncc4c(N5CC6CCC(C5)N6)nc(OC[C@H]5C[C@@H](N6CCN(C[C@H]7CC[C@H](Nc8ccc9c(c8)C(=O)N(C8CCC(=O)NC8=O)C9=O)CC7)CC6)CN5C)nc4c3F)c12 (stereo partly drawn) [Compound 77] | > 1000 | < 100 | > 1000 | – | – | – | – | –
C#Cc1cccc2cccc(-c3ncc4c(N5CC6CCC(C5)N6)nc(OC[C@H]5CC[C@@H](CN6CCN(CC7CCC(Nc8ccc9c(c8)C(=O)N(C8CCC(=O)NC8=O)C9=O)CC7)CC6)N5C)nc4c3F)c12 (stereo partly drawn) [Compound 79] | > 1000 | < 100 | > 1000 | – | – | – | – | –
O=C1CCC(N2Cc3cc(N4CCN(CC5(COc6nc(N7CC8CCC(C7)N8)c7cnc(-c8cccc9cccc(Cl)c89)c(F)c7n6)CC5)CC4)ccc3C2=O)C(=O)N1 (stereo not drawn) [Compound 80] | > 1000 | < 100 | > 1000 | – | – | – | – | –
C#Cc1cccc2cc(O)cc(-c3ncc4c(N5CC6CCC(C5)N6)nc(OCC5(CN(C)CC6CCN(c7ccc8c(c7)CN(C7CCC(=O)NC7=O)C8=O)CC6)CC5)nc4c3F)c12 (stereo not drawn) [Compound 84] | > 1000 | – | > 1000 | 100 to 1000 | > 50 | – | – | –
C#Cc1cccc2cc(O)cc(-c3ncc4c(N5CC6CCC(C5)N6)nc(OCC5(CN6CCC(C(=O)N7CCN(c8ccc9c(c8)CN(C8CCC(=O)NC8=O)C9=O)CC7)CC6)CC5)nc4c3F)c12 (stereo not drawn) [Compound 85] | < 100 | – | > 1000 | 100 to 1000 | > 50 | – | – | –
C#Cc1cccc2cc(O)cc(-c3ncc4c(N5CC6CCC(C5)N6)nc(OCC5(CN6CCN(CC7CCN(c8ccc9c(c8)C(=O)N(C8CCC(=O)NC8=O)C9)CC7)CC6)CC5)nc4c3F)c12 (stereo not drawn) [Compound 86] | < 100 | – | < 100 | < 100 | > 50 | – | – | –
C#Cc1cccc2cc(O)cc(-c3ncc4c(N5CC6CCC(C5)N6C(=O)C(F)(F)F)nc(OCC5(CN6CCN(CC7CCN(c8ccc9c(c8)CN(C8CCC(=O)NC8=O)C9=O)CC7)CC6)CC5)nc4c3F)c12.Cl (stereo not drawn) [Compound 87] | – | – | – | – | – | 100 to 1000 | B (Dmax = 10-50%) | 100 to 1000
C#Cc1c(F)ccc2cc(O)cc(-c3ncc4c(N5CC6CCC(C5)N6C(=O)CC)nc(OCC5(CN6CCN(CC7CCN(c8ccc9c(c8)CN(C8CCC(=O)NC8=O)C9=O)CC7)CC6)CC5)nc4c3F)c12 (stereo not drawn) [Compound 91] | > 1000 | – | > 1000 | > 1000 | < 10 | – | – | –
C#Cc1c(F)ccc2cc(O)cc(-c3nc(OC)c4c(N5CCN(C(=O)CC)[C@H](CC#N)C5)nc(OCC5(CN6CCN(CC7CCN(c8ccc9c(c8)CN(C8CCC(=O)NC8=O)C9=O)CC7)CC6)CC5)nc4c3F)c12 (stereo partly drawn) [Compound 92] | > 1000 | < 100 | > 1000 | – | – | – | – | –
C#Cc1c(F)ccc2cc(O)cc(-c3ncc4c(N5CCN(C(=O)CC)[C@@H](CC#N)C5)nc(OCC5(CN6CCN(CC7CCN(c8ccc9c(c8)CN(C8CCC(=O)NC8=O)C9=O)CC7)CC6)CC5)nc4c3F)c12 (stereo partly drawn) [Compound 97] | > 1000 | < 100 | > 1000 | – | – | – | – | –
C#Cc1c(F)ccc2cc(O)cc(-c3nc(O)c4c(N5CC6CCC(C5)N6)nc(OCC5(CN6CCN(CC7CCN(c8ccc9c(c8)CN(C8CCC(=O)NC8=O)C9=O)CC7)CC6)CC5)nc4c3F)c12 (stereo not drawn) [Compound 101] | > 1000 | – | 100 to 1000 | > 1000 | < 10 | – | – | –
C#Cc1c(F)ccc2cc(O)cc(-c3ncc4c(N5CC6CCC(C5)N6)nc(OCC5(CN6CCN(C7CCN(c8ccc9c(c8)CN(C8CCC(=O)NC8=O)C9=O)CC7)CC6)CC5)nc4c3F)c12 (stereo not drawn) [Compound 104] | – | < 100 | 100 to 1000 | < 100 | > 50 | – | – | –
C#Cc1c(F)ccc2cc(O)cc(-c3ncc4c(N5CC6CCC(C5)N6)nc(OCC5(CN6CCC(N7CCC(c8ccc9c(c8)CN(C8CCC(=O)NC8=O)C9=O)CC7)CC6)CC5)nc4c3F)c12 (stereo not drawn) [Compound 107] | – | < 100 | < 100 | < 100 | – | – | – | –
C#Cc1c(F)ccc2cc(O)cc(-c3ncc4c(N5CC6CCC(C5)N6)nc(OCC5(CN6CCC(CN7CCC(c8ccc9c(c8)CN(C8CCC(=O)NC8=O)C9=O)CC7)CC6)CC5)nc4c3F)c12 (stereo not drawn) [Compound 111] | – | < 100 | – | < 100 | > 50 | – | – | –
C#Cc1c(F)ccc2cc(O)cc(-c3nc(OC)c4c(N5CC6CCC(C5)N6)nc(OCC5(CN6CCN(C7CCN(c8ccc9c(c8)CN(C8CCC(=O)NC8=O)C9=O)CC7)CC6)CC5)nc4c3F)c12 (stereo not drawn) [Compound 112] | – | < 100 | – | < 100 | – | – | – | –
